pIC50: −log10 of the molar value.
Biological target: Mitogen-activated protein kinase 14 (Homo sapiens, UniProt Q16539)
Test: P38 MAP Kinase Assay
Conditions: pH 7.5; 37 °C
Source text: Kinase assay using p38alpha MAP.

Mitogen-activated protein kinase 14, sequence (Q16539 whole entry): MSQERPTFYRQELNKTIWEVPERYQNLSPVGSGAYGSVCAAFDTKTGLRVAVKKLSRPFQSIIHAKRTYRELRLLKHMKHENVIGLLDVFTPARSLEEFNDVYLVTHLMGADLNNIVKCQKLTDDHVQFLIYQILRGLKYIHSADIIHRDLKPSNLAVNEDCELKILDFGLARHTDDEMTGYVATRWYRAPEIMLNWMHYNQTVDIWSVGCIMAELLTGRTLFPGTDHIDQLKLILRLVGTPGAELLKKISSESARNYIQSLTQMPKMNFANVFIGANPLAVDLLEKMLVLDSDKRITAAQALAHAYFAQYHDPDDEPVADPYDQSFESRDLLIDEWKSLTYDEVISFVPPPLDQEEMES

| SMILES | pIC50 |
| --- | --- |
| COc1cc(-c2cc(-c3ccc(Br)cc3)nc(N)c2C#N)cc(OC)c1OC [MAP Kinase Inhibitor, 1] | 5.70 |
| Cc1ccc(-c2cc(-c3ccc(Br)cc3)nc(N)c2C#N)o1 [MAP Kinase Inhibitor, 2] | 7.15 |
| N#Cc1c(-c2cccnc2)cc(-c2ccc(Br)cc2)nc1N [MAP Kinase Inhibitor, 3] | 5.43 |
| N#Cc1c(-c2ccc(Cl)c(Cl)c2)cc(-c2ccc(Br)cc2)nc1N [MAP Kinase Inhibitor, 4] | 5.43 |
| N#Cc1c(-c2c[nH]c3ccccc23)cc(-c2ccc(Br)cc2)nc1N [MAP Kinase Inhibitor, 6] | 5.58 |
| N#Cc1c(-c2ccc(Br)cc2)cc(-c2ccc(Br)cc2)nc1N [MAP Kinase Inhibitor, 7] | 6.12 |
| COc1cc(-c2cc(-c3ccc(Br)cc3)[nH]c(=O)c2C#N)cc(OC)c1OC [MAP Kinase Inhibitor, 8] | 5.91 |
| N#Cc1c(-c2ccc(Cl)c(Cl)c2)cc(-c2ccc(Br)cc2)[nH]c1=O [MAP Kinase Inhibitor, 11] | 6.92 |
| N#Cc1c(-c2ccc(Br)cc2)cc(-c2ccc(Br)cc2)[nH]c1=O [MAP Kinase Inhibitor, 14] | 5.36 |
